How the values were obtained:
[1] = tested on: bone marrow stromal cells; details: bone marrow stromal cells treated with 5-azacytidine; cited from earlier work
[2] = tested on: umbilical mesenchymal cells; assay: Cardiac troponin I / F-actin immunocytochemistry after cardiac differentiation; format: cell-based, human; details: 3 μM 5-azacytidine for 24 hours, then growing medium 1-3 weeks
Protocol: Umbilical mesenchymal cells obtained in Example 1 were cultured in a cell growing medium of DMEM supplemented with about 4.5 g/L of glucose and about 10% FBS. After the cells have attached to the bottom of the cell culture plate, the cell growing medium was then replaced by a cell differentiating medium, which was prepared by supplementing the cell growing medium with 3 μM 5-azacytidine as a cell differentiating factor. Alternatively, the cell differentiating factor may be directly added to the culture.
The umbilical mesenchymal cells were cultured in the cell differentiating medium for 24 hours. The cell differentiating medium was then replaced by the cell growing medium to prevent intoxication of the cells caused by the long exposure to 5-azacytidine. The differentiated cells were further maintained in the cell growing medium for about 1-3 weeks to ensure the viability and optimal differentiation of the cells. The culture medium was replaced with fresh medium every three days. […]
Next, secondary antibodies conjugated to fluorescence or any visible dyes readily detectable by an optical instrument such as a confocal laser scanning microscope, a fluorescence microscope, or an optical microscope, Rhodamine (TRITC)-conjugated AffiniPure Donkey Anti-Goat IgG (supplied by Jackson ImmunoResearch Lab) were added at a 1:100 dilution to bind the host species of the primary antibodies. […]

[3] = tested on: umbilical mesenchymal cells; assay: Transformation of umbilical mesenchymal cells into neurons with BME (NF and NeuN immunostaining); format: cell-based, human; details: 2 mM BME, 72 hours
From the text: Neurofilament (NF) is the major cytoskeleton in neurons, which is responsible for adjusting the size, appearance and diameter of dendrites of neurons. Only neurons at the late developmental stage or mature neurons express NF. Immunostaining for NF is utilized to recognize neurons at the late stage.
Neuron-specific nuclear protein (NeuN) is a specific protein existing in the nucleus of neurons in the central nervous system of vertebrates. NeuN binds to DNA in vitro. It is known that NeuN appears earlier than NF during the development of neurons. Therefore, immunostaining for NeuN is utilized to identify neurons at the early stage of transformation.
Umbilical mesenchymal cells obtained in Example 1 were cultured in 10% FBS-DMEM for 72 hours. Two mM BME was added to the culture and the cells continued to be cultured for 72 hours.

[4] = unsuitable for use in human bodies; cited from earlier work
BMSCs = details: in vitro culture of BMSCs; cited from earlier work
[5] = tested on: haematopoietic stem cells of umbilical cord blood; details: cultured in 0.001% of β-Mercaptoethanol; cited from earlier work

SMILES	ultrastructure by electron microscopy [1]	F-actin expression, cell attachment pattern [2]	C-troponin I expression ([2]; compared to untreated cells)	NF expression (immunostaining) [3]	NeuN expression (immunostaining) [3]	toxicity [4]	cultured BMSCs induced to differentiate into neurons (BMSCs)	transformation of cord blood haematopoietic stem cells [5]
Nc1ncn([C@@H]2O[C@H](CO)[C@@H](O)[C@H]2O)c(=O)n1 [cell differentiating factor, 5-azacytidine]	cardiomyocyte-like ultrastructure	specific cell attachment pattern similar to that of the cardiomyocytes or cardiovascular cells	significant expression of C-troponin I	–	–	–	–	–
OCCS [BME, β-mercaptoethanol]	–	–	–	expressed NF	expressed NeuN	toxic for proteins	about 80%	transformed into precursors of neural cells
